The source of these data is patent US20100129434A1, “COMPOSITIONS AND METHODS FOR THE TREATMENT OF MUCORMYCOSIS AND OTHER FUNGAL DISEASES” (priority 2006, published 2010).

The assay concerns R. oryzae. As to the kind of experiment: Survival of diabetic ketoacidotic (DKA) mice infected with R. oryzae. It is filed as in vivo, BALB/c male mice. The settings on record: DKA mice; for survival compared to controls: 2.2×10^4 spores R. oryzae 99-892, 1, 3, or 10 mg/kg bid for seven days; for 28 day survival: R. oryzae 99-892. Here is the method:
Briefly, for in vivo infection, BALB/c male mice (>20 g) were rendered diabetic with a single i.p. injection of 210 mg/kg streptozotocin in 0.2 ml citrate buffer 10 days prior to fungal challenge. […] Mice were infected through the tail vein with the appropriate inocula of R. oryzae. To confirm the inocula, dilutions were streaked on PDA plates and colonies were counted following a 24 h incubation period at room temperature. The primary efficacy endpoint was time to death. As a secondary endpoint, brain fungal burden (the primary target organ) was determined by homogenization by rolling a pipette on organs placed in Whirl-Pak bags (Nasco, Fort Atkinson, Wis.) containing 2 ml saline. The homogenate was serially diluted in 0.85% saline and then quantitatively cultured on PDA. Values were expressed as log 10 cfu g^−1 tissue. All procedures involving mice were approved by the institutional animal use and care committee, following the National Institutes of Health guidelines for animal housing and care.
Deferiprone (Apotex Research Inc.) was dissolved in iron-free water and administered intraperitoneally at 50, 100, or 200 mg/kg qd or qod (every other day). Treatment was begun 24 h post infection and continued for a total of 4 doses. Control groups were treated with the diluent, 5% dextrose water.
Deferiprone is known to form molecular complexes with ferric iron (^3+Fe) in a 1:3 ratio of iron to deferiprone. Based on the known molecular weights of ferric chloride (FeCl3, molecular weight 162.22 g/mol) and deferiprone (molecular weight 139 g/mol), a 60 mg/kg dose of FeCl3 was calculated to result in a significant excess of ^3+Fe vs. a 100 mg/kg dose of deferiprone given to an 18 g mouse: ^3+Fe moles=(0.060 g/kg*0.018 kg [mouse weight]/162.22 g/mol)=6.5×10^−6 mol vs. deferiprone moles=(0.1 g/kg*0.018 kg [mouse weight]/139 g/mol)=1.3×10^−5 mol Ratio=1:2 moles of ^3+Fe to deferiprone, which is more than that required to achieve a saturating 1:3 ratio.
Statistical analysis was performed using the nonparametric log rank test was used to determine differences in survival times of the mice. Differences in tissue fungal burdens in the infected organs were compared by the nonparametric Steel test for multiple comparisons. P values of <0.05 were considered significant.
Deferasirox (Novartis Pharmaceuticals, Basel, Switzerland) was suspended in 0.5% hydroxypropylcellulose (Klucel) and administered by oral gavage at 1, 3, or 10 mg/kg […] (qd) or every other day (qod). Treatment was begun 24 h post infection and continued for a total of 5 or 7 doses. Control groups were treated with the diluent, 5% dextrose water and 0.5% Klucel. In some experiments, a saturating dose of free iron was administered with deferasirox. Deferasirox is known to form molecular complexes with ferric iron (^3+Fe) in a 1:2 ratio of iron to deferasirox. Based on the known molecular weights of ferric chloride (FeCl3, molecular weight 162.22 g/mol) and deferasirox (molecular weight 373.4 g/mol), a 2.8 mg/kg dose of FeCl3 was calculated to result in a significant excess of ^3+Fe vs. a 10 mg/kg dose of deferasirox given to an 18 g mouse: ^3+Fe moles=(0.0028 g/kg*0.018 kg [mouse weight]/162.22 g/mol)=3×10^−7 mol vs. deferasirox moles=(0.01 g/kg*0.018 kg [mouse weight]/373.4 g/mol)=5×10^−7 mol Ratio=1:1.7 moles of ^3+Fe to deferasirox, which is more than that required to achieve a saturating 1:2 ratio.
The nonparametric log rank test was used to determine differences in survival times of the mice. Differences in tissue fungal burdens, splenic lymphocyte frequencies, and whole organ cytokines in the infected organs were compared by the Mann Whitney U test. P values of <0.05 were considered significant.

For `O=C(O)c1ccc(-n2nc(-c3ccccc3O)nc2-c2ccccc2O)cc1` [Deferasirox, 4-[3,5-Bis(2-hydroxyphenyl)-1H-1,2,4-triazol-1-yl]-benzoic acid], the “survival compared to controls” value is given as “significantly improved survival”. For the same compound, the “time to death compared to placebo” value (1.3×10^3 spores R. oryzae 99-880, 10 mg/kg bid seven days) is recorded as “significantly improved time to death”. The “survival compared to controls” value (listed as Exjade) was “improves survival”. For the same compound, where the note is “R. oryzae 99-880, Deferasirox 10 mg/kg po twice daily, LAmB 15 mg/kg iv once daily 4 doses, or both, placebo 0%”, the survival was found to be 25%. The 28 day survival (1 mg/kg bid oral gavage 7 days, placebo 0%, p=0.03) is 29%. This compound also yielded a 28 day survival (3 mg/kg bid oral gavage 7 days, placebo 0%, p=0.049) of 40%. The 28 day survival (10 mg/kg bid oral gavage 7 days, placebo 0%, p=0.01) was 57%. Besides, the “protective effect on administration of free iron” value (deferasirox plus saturating ferric chloride) is reported as “reversed”.
